Key:
[1] = species on record: Homo sapiens; experiment: Selectivity index, ratio of IC50 for human WI-38 cells to IC50 for human HuTu80 cells
[2] = test system: A549; experiment: Cytotoxicity against human A549 cells assessed as number of viable cells measured after 48 hrs by MTT based colorimetric assay; assay type: functional, cell-based; conditions: A549, 48 h
[3] = test system: Escherichia coli; experiment: Antimicrobial activity against Escherichia coli ATCC 25922 by serial microdilution method; assay type: functional
[4] = test system: HuTu80; experiment: Induction of apoptosis in human HuTu80 cells assessed as late apoptotic cells at 5 uM incubated for 48 hrs by annexin V FITC/propidium iodide staining based flow cytometry analysis (reference value: 0.00%); assay type: functional
[5] = test system: SK-OV-3; experiment: Cytotoxicity against human SK-OV-3 cells assessed as number of viable cells measured after 48 hrs by MTT based colorimetric assay; assay type: functional, cell-based; conditions: SK-OV-3, 48 h
[6] = test system: HuTu80; experiment: Cytotoxicity against human HuTu80 cells assessed as number of viable cells measured after 48 hrs by MTT based colorimetric assay; assay type: functional, cell-based; conditions: HuTu80, 48 h
[7] = test system: HuTu80; experiment: Induction of cell cycle arrest in human HuTu80 cells assessed as accumulation of cell at G1/G0 phase at 5 uM measured after 48 hrs by propidium iodide staining based analysis (reference value: 72%); assay type: functional
[8] = test system: DU-145; experiment: Cytotoxicity against human DU-145 cells assessed as number of viable cells measured after 48 hrs by MTT based colorimetric assay; assay type: functional, cell-based; conditions: DU-145, 48 h
[9] = test system: HuTu80; experiment: Induction of apoptosis in human HuTu80 cells assessed as viable cells at 10 uM incubated for 48 hrs by annexin V FITC/propidium iodide staining based flow cytometry analysis (reference value: 93.71%); assay type: functional; conditions: read-out: Activity
[10] = test system: HuTu80; experiment: Induction of mitochondrial membrane potential loss in human HuTu80 cells assessed as J-aggregates red fluorescence intensity at 5 uM incubated for 24 hrs by JC10 staining based flow cytometry method (reference value: 94.4%); assay type: functional
[11] = test system: PANC-1; experiment: Cytotoxicity against human PANC-1 cells assessed as number of viable cells measured after 48 hrs by MTT based colorimetric assay; assay type: functional, cell-based; conditions: PANC-1, 48 h
[12] = test system: HepG2; experiment: Cytotoxicity against human HepG2 cells assessed as number of viable cells measured after 48 hrs by MTT based colorimetric assay; assay type: functional, cell-based; conditions: HepG2, 48 h
[13] = test system: HuTu80; experiment: Induction of apoptosis in human HuTu80 cells assessed as necrotic cells at 5 uM incubated for 48 hrs by annexin V FITC/propidium iodide staining based flow cytometry analysis (reference value: 4.56%); assay type: functional
[14] = test system: HuTu80; experiment: Induction of ROS production in human HuTu80 cells assessed as increase in fluorescence intensity at 5 uM measured after 48 hrs by flow cytometry based analysis (reference value: 380); assay type: functional
[15] = test system: Staphylococcus aureus; experiment: Bactericidal against Staphylococcus aureus ATCC 6538 P FDA 209P by serial microdilution method; assay type: functional
[16] = test system: HuTu80; experiment: Induction of mitochondrial membrane potential loss in human HuTu80 cells assessed as J-monomer green fluorescence intensity at 5 uM incubated for 24 hrs by JC10 staining based flow cytometry method (reference value: 5.7%); assay type: functional
[17] = test system: HuTu80; experiment: Induction of apoptosis in human HuTu80 cells assessed as early apoptotic cells at 5 uM incubated for 48 hrs by annexin V FITC/propidium iodide staining based flow cytometry analysis (reference value: 1.74%); assay type: functional
[18] = test system: HuTu80; experiment: Induction of ROS production in human HuTu80 cells assessed as increase in fluorescence intensity at 10 uM measured after 48 hrs by flow cytometry based analysis (reference value: 380); assay type: functional
[19] = test system: HuTu80; experiment: Induction of cell cycle arrest in human HuTu80 cells assessed as accumulation of cell at S phase at 10 uM measured after 48 hrs by propidium iodide staining based analysis (reference value: 8.1%); assay type: functional
[20] = test system: HuTu80; experiment: Induction of cell cycle arrest in human HuTu80 cells assessed as accumulation of cell at G1/G0 phase at 10 uM measured after 48 hrs by propidium iodide staining based analysis (reference value: 72%); assay type: functional
[21] = test system: HuTu80; experiment: Induction of apoptosis in human HuTu80 cells assessed as early apoptotic cells at 10 uM incubated for 48 hrs by annexin V FITC/propidium iodide staining based flow cytometry analysis (reference value: 1.74%); assay type: functional
[22] = test system: MCF7; experiment: Cytotoxicity against human MCF7 cells assessed as number of viable cells measured after 48 hrs by MTT based colorimetric assay; assay type: functional, cell-based; conditions: MCF7, 48 h
[23] = test system: PC-3; experiment: Cytotoxicity against human PC-3 cells assessed as number of viable cells measured after 48 hrs by MTT based colorimetric assay; assay type: functional, cell-based; conditions: PC-3, 48 h
[24] = test system: Enterococcus faecalis; experiment: Antimicrobial activity against Enterococcus faecalis ATCC 29212 by serial microdilution method; assay type: functional
[25] = Cytotoxicity against human WI-38 cells assessed as number of viable cells measured after 48 hrs by MTT based colorimetric assay; assay type: toxicity, cell-based
[26] = test system: Staphylococcus aureus; experiment: Antimicrobial activity against Staphylococcus aureus ATCC 6538 P FDA 209P by serial microdilution method; assay type: functional
[27] = test system: Bacillus cereus; experiment: Antimicrobial activity against Bacillus cereus ATCC 10702 NCTC 8035 by serial microdilution method; assay type: functional
[28] = test system: Bacillus cereus; experiment: Bactericidal activity against Bacillus cereus ATCC 10702 NCTC 8035 by serial microdilution method; assay type: functional
[29] = test system: HuTu80; experiment: Induction of cell cycle arrest in human HuTu80 cells assessed as accumulation of cell at G2/M phase at 10 uM measured after 48 hrs by propidium iodide staining based analysis (reference value: 18.7%); assay type: functional
[30] = Cytotoxicity against human Chang liver cells assessed as number of viable cells measured after 48 hrs by MTT based colorimetric assay; assay type: toxicity, cell-based
[31] = test system: T98G; experiment: Cytotoxicity against human T98G cells assessed as number of viable cells measured after 48 hrs by MTT based colorimetric assay; assay type: functional, cell-based
[32] = test system: HuTu80; experiment: Induction of apoptosis in human HuTu80 cells assessed as late apoptotic cells at 10 uM incubated for 48 hrs by annexin V FITC/propidium iodide staining based flow cytometry analysis (reference value: 0.00%); assay type: functional
[33] = test system: Escherichia coli; experiment: Bactericidal activity against Escherichia coli ATCC 25922 by serial microdilution method; assay type: functional
[34] = test system: HuTu80; experiment: Induction of mitochondrial membrane potential loss in human HuTu80 cells assessed as J-monomer green fluorescence intensity at 10 uM incubated for 24 hrs by JC10 staining based flow cytometry method (reference value: 5.7%); assay type: functional
[35] = test system: HuTu80; experiment: Induction of apoptosis in human HuTu80 cells assessed as necrotic cells at 10 uM incubated for 48 hrs by annexin V FITC/propidium iodide staining based flow cytometry analysis (reference value: 4.56%); assay type: functional
[36] = test system: HuTu80; experiment: Induction of cell cycle arrest in human HuTu80 cells assessed as accumulation of cell at S phase at 5 uM measured after 48 hrs by propidium iodide staining based analysis (reference value: 8.1%); assay type: functional
[37] = test system: M-HeLa; experiment: Cytotoxicity against human HelaM cells assessed as number of viable cells measured after 48 hrs by MTT based colorimetric assay; assay type: functional, cell-based
[38] = test system: HuTu80; experiment: Induction of cell cycle arrest in human HuTu80 cells assessed as accumulation of cell at G2/M phase at 5 uM measured after 48 hrs by propidium iodide staining based analysis (reference value: 18.7%); assay type: functional
[39] = test system: Enterococcus faecalis; experiment: Bactericidal activity against Enterococcus faecalis ATCC 29212 by serial microdilution method; assay type: functional
[40] = test system: HuTu80; experiment: Induction of apoptosis in human HuTu80 cells assessed as viable cells at 5 uM incubated for 48 hrs by annexin V FITC/propidium iodide staining based flow cytometry analysis (reference value: 93.71%); assay type: functional; conditions: read-out: Activity
[41] = test system: HuTu80; experiment: Induction of mitochondrial membrane potential loss in human HuTu80 cells assessed as J-aggregates red fluorescence intensity at 10 uM incubated for 24 hrs by JC10 staining based flow cytometry method (reference value: 94.4%); assay type: functional

CCCCCCCC/C=C\CCCCCCCC(=O)OCC(O)COC(=O)CCCC[P+](c1ccccc1)(c1ccccc1)c1ccccc1.[Br-] (stereo not given)
Ratio IC50 [1]: 5.1
IC50 [2]: 71.3 µM
MIC [3]: 125 µM
Activity [4]: 15.18%
IC50 [5]: 52 µM
IC50 [6]: 10 µM
Activity [7]: 84%
IC50 [8]: 41 µM
viability at 10 µM [9]: 37.6%
Activity [10]: 51.1%
IC50 [11]: 62.5 µM
IC50 [12]: 100 µM
Activity [13]: 17.73%
Flu intensity [14]: 700
MBC [15]: 500 µM
Activity [16]: 49%
Activity [17]: 3.35%
Flu intensity [18]: 1500
Activity [19]: 1.2%
Activity [20]: 87%
Activity [21]: 4.78%
IC50 [22]: 52.1 µM
IC50 [23]: 51 µM
MIC [24]: 7.8 µM
IC50 at 48 h [25]: 53.1 µM
MIC [26]: 31.3 µM
MIC [27]: 7.8 µM
MBC [28]: 500 µM
Activity [29]: 1.1%
IC50 at 48 h [30]: 34 µM
IC50 [31]: 62.5 µM
Activity [32]: 33.13%
MBC [33]: 125 µM
Activity [34]: 67.5%
Activity [35]: 24.48%
Activity [36]: 2.1%
IC50 [37]: 60.2 µM
Activity [38]: 3%
MBC [39]: 125 µM
viability at 5 µM [40]: 63.7%
Activity [41]: 30.1%

O=c1[nH]cc(F)c(=O)[nH]1 [FLUOROURACIL]
IC50 [2]: 32.4 µM
IC50 [5]: 47.2 µM
IC50 [6]: 65.2 µM
IC50 [11]: 100 µM
IC50 [23]: 10.3 µM
IC50 at 48 h [25]: 62 µM
IC50 at 48 h [30]: 19 µM
IC50 [37]: 62 µM

COc1cccc2c1C(=O)c1c(O)c3c(c(O)c1C2=O)C[C@@](O)(C(=O)CO)C[C@@H]3O[C@H]1C[C@H](N)[C@H](O)[C@H](C)O1 [DOXORUBICIN]
IC50 [2]: 0.7 µM
IC50 [5]: 6.7 µM
IC50 [6]: 0.2 µM
IC50 [8]: 0.3 µM
IC50 [11]: 2.2 µM
IC50 [12]: 0.2 µM
IC50 [22]: 0.4 µM
IC50 at 48 h [25]: 0.4 µM
IC50 at 48 h [30]: 0.5 µM
IC50 [31]: 1 µM
IC50 [37]: 2.1 µM
